Literature values, collected in patent US8591958B2, “Concentrated hydrogen peroxide disinfecting solutions” (priority 2008, dated 2013).
Like-named read-outs stand apart in the source and are kept apart here.

Tested on: Staphylococcus aureus

OO [hydrogen peroxide]
time required to disinfect surfaces contaminated with Staphylococcus aureus (0.1% w/w aqueous solution): about 60 minutes
time required to disinfect surfaces contaminated with Staphylococcus aureus (25.8% w/w aqueous solution, same test conditions): about 20 seconds
